Measurements: patent publication US12371454B2, “Cyclic peptide compound having Kras inhibitory action” (priority 2019, dated 2025)
Starred links: 1 amine or outer side, 2 acyl side, 3 side chain; linkers in the order of their positions; H or OH if unused. Positions of bridges follow the written chain, without caps; N, C: chain ends. Non-standard residues stand in square brackets, D forms with d. Residues, ends and D or L forms follow the SMILES beside them. *: point of attachment. hPhe(3,5-F2-4-CF3) = N[C@@H](CCc1cc(F)c(C(F)(F)F)c(F)c1)C(=O)O; hPhe(3-Cl-4-CF3) = N[C@@H](CCc1ccc(C(F)(F)F)c(Cl)c1)C(=O)O; hPhe(3-F,4-CF3) = N[C@@H](CCc1ccc(C(F)(F)F)c(F)c1)C(=O)O; NMePhe(4-CF3) = CN[C@@H](Cc1ccc(C(F)(F)F)cc1)C(=O)O; 3Oxa8azabicyclo(3.2.1)octane = C1CC2COCC1N2*; NMePhe(4-Me) = CN[C@@H](Cc1ccc(C)cc1)C(=O)O; NMedβ3hAla = C[C@H](CC(=O)[*:2])N(C)[*:1]; NMeNva(5,5-F2) = CN[C@@H](CCC(F)F)C(=O)O; NMeGly(cPent) = CN[C@H](C(=O)O)C1CCCC1; Pro(4,4-F2) = O=C(O)[C@@H]1CC(F)(F)CN1; NMeCha = CN[C@@H](CC1CCCCC1)C(=O)O; cisHyp = O=C(O)[C@@H]1C[C@H](O)CN1; Hyp = O=C(O)[C@@H]1C[C@@H](O)CN1; NEtLeu = CCN[C@@H](CC(C)C)C(=O)O; NMeAhp(2) = CCCCC[C@H](NC)C(=O)O; NMeChg = CN[C@H](C(=O)O)C1CCCCC1; NMeI = CC[C@H](C)[C@H](NC)C(=O)O; NMeT = CN[C@H](C(=O)O)[C@@H](C)O; Gly(cBu) = N[C@H](C(=O)O)C1CCC1; NMeD = CN[C@@H](CC(=O)O)C(=O)O; NMeL = CN[C@@H](CC(C)C)C(=O)O; NMePra = C#CC[C@H](NC)C(=O)O; NMeV = CN[C@H](C(=O)O)C(C)C; d(β3hA) = C[C@@H](N)CC(=O)O; NMeS = CN[C@@H](CO)C(=O)O; NMeA = CN[C@@H](C)C(=O)O; Piperidide = C1CCN(*)CC1; Ac5c = NC1(C(=O)O)CCCC1; Aze = O=C(O)[C@@H]1CCN1; Sar = CNCC(=O)O; Propyl = CCC*

Test system: Human pancreatic cancer cell line AsPC-1
Assay: Measurement of AsPC-1 cell growth inhibition (AsPC-1 CGI)
Format: cell-based
Details: 96 h
Summary of the method: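 AsPC-1 cells in 15% FBS RPMI-1640 were exposed to test compound for 96 hours at 37° C, with CellTiter-Glo as endpoint.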

Structure (SMILES)	IC50 [nM]
CC[C@H](C)[C@@H]1NC(=O)[C@H](CC(C)C)N(C)C(=O)C[C@@H](C)NC(=O)[C@H](C(C)C)N(C)C(=O)C2(CCCC2)NC(=O)[C@@H]2CCCN2C(=O)[C@H](CCc2ccc(C(F)(F)F)c(Cl)c2)NC(=O)CN(C)C(=O)[C@H](CC2CCCCC2)N(C)C(=O)[C@@H]2CCN2C(=O)[C@H](C)N(C)C1=O [Compound 488] (cyclo([Ac5c][NMeV][d(β3hA)][NMeL]I[NMeA][Aze][NMeCha][Sar][hPhe(3-Cl-4-CF3)]P))	100 to 500
CC[C@H](C)[C@@H]1NC(=O)[C@H](CC(C)C)N(C)C(=O)C[C@@H](C(=O)N2CCCCC2)N(C)C(=O)[C@H](C(C)C)N(C)C(=O)C2(CCCC2)NC(=O)[C@@H]2CCCN2C(=O)[C@H](CCc2ccc(C(F)(F)F)c(Cl)c2)NC(=O)CN(C)C(=O)[C@H](CC2CCCCC2)N(C)C(=O)[C@@H]2CCN2C(=O)[C@H]([C@@H](C)O)N(C)C1=O [Compound 496] ([NMeL]I[NMeT][Aze][NMeCha][Sar][hPhe(3-Cl-4-CF3)]P[Ac5c][NMeV][NMeD]-Piperidide; lactam N-11)	100 to 500
CO[C@H](C)[C@@H]1NC(=O)[C@H](CC(C)C)N(C)C(=O)C[C@@H](C(=O)N2CCCCC2)N(C)C(=O)[C@H](C(C)C)N(C)C(=O)C2(CCCC2)NC(=O)[C@@H]2CCCN2C(=O)[C@H](CCc2ccc(C(F)(F)F)c(Cl)c2)NC(=O)CN(C)C(=O)[C@H](CC2CCCCC2)N(C)C(=O)[C@@H]2CCN2C(=O)[C@H](C)N(C)C1=O [Compound 497] ([NMeL]T(Me)[NMeA][Aze][NMeCha][Sar][hPhe(3-Cl-4-CF3)]P[Ac5c][NMeV][NMeD]-Piperidide; lactam N-11)	100 to 500
CC[C@H](C)[C@@H]1NC(=O)[C@H](CC(C)C)N(C)C(=O)C[C@@H](C(=O)N2CCCCC2)N(C)C(=O)[C@H](C2CCCCC2)N(C)C(=O)C2(CCCC2)NC(=O)[C@H](CCC(F)F)N(C)C(=O)[C@H](CCc2ccc(C(F)(F)F)c(Cl)c2)NC(=O)CN(C)C(=O)[C@H](CC2CCCCC2)N(C)C(=O)CN(C)C(=O)CN(C)C1=O [Compound 523] ([NMeL]I[Sar][Sar][NMeCha][Sar][hPhe(3-Cl-4-CF3)][NMeNva(5,5-F2)][Ac5c][NMeChg][NMeD]-Piperidide; lactam N-11)	100 to 500
CC[C@H](C)[C@@H]1NC(=O)[C@H](CC(C)C)N(CC)C(=O)C[C@@H](C)NC(=O)[C@H](C2CCCC2)N(C)C(=O)C2(CCCC2)NC(=O)[C@@H]2CCCN2C(=O)[C@H](CCc2ccc(C(F)(F)F)c(Cl)c2)NC(=O)CN(C)C(=O)[C@H](Cc2ccc(C)cc2)N(C)C(=O)[C@@H]2CCN2C(=O)[C@H](C)N(C)C1=O [Compound 531] (cyclo([Ac5c][NMeGly(cPent)][d(β3hA)][NEtLeu]I[NMeA][Aze][NMePhe(4-Me)][Sar][hPhe(3-Cl-4-CF3)]P))	20 to 50
CC[C@H](C)[C@@H]1NC(=O)[C@H](CC(C)C)N(C)C(=O)C[C@@H](C(=O)N2CCCCC2)N(C)C(=O)[C@H](CC(C)C)N(C)C(=O)C2(CCCC2)NC(=O)[C@@H]2C[C@H](O)CN2C(=O)[C@H](CCc2ccc(C(F)(F)F)c(F)c2)NC(=O)CN(C)C(=O)[C@H](CC2CCCCC2)N(C)C(=O)CN(C)C(=O)CN(C)C1=O [Compound 544, (3S,9S,18S,21S,25S,28S,34S,36S)-9-(cyclohexylmethyl)-3-[2-[3-fluoro-4-(trifluoromethyl)phenyl]ethyl]-36-hydroxy-21,28-diisobutyl-7,10,13,16,22,26,29-heptamethyl-18-[(1S)-1-methylpropyl]-25-(piperidine-1-carbonyl)spiro[1,4,7,10,13,16,19,22,26,29,32-undecazabicyclo[32.3.0]heptatriacontane-31,1′-cyclopentane]-2,5,8,11,14,17,20,23,27,30,33-undecone] ([NMeL]I[Sar][Sar][NMeCha][Sar][hPhe(3-F,4-CF3)][cisHyp][Ac5c][NMeL][NMeD]-Piperidide; lactam N-11)	100 to 500
CC[C@H](C)[C@@H]1NC(=O)[C@H](CC(C)C)N(C)C(=O)C[C@@H](C(=O)N2CCCCC2)N(C)C(=O)[C@H](C2CCCCC2)N(C)C(=O)C2(CCCC2)NC(=O)[C@@H]2CCCN2C(=O)[C@H](CCc2ccc(C(F)(F)F)c(Cl)c2)NC(=O)CN(C)C(=O)[C@H](CC2CCCCC2)N(C)C(=O)CN(C)C(=O)CN(C)C1=O [Compound 558] ([NMeL]I[Sar][Sar][NMeCha][Sar][hPhe(3-Cl-4-CF3)]P[Ac5c][NMeChg][NMeD]-Piperidide; lactam N-11)	20 to 50
C#CC[C@H]1C(=O)N[C@@H]([C@@H](C)CC)C(=O)N(C)[C@@H](C)C(=O)N2CC[C@H]2C(=O)N(C)[C@@H](CC2CCCCC2)C(=O)N(C)CC(=O)N[C@@H](CCc2ccc(C(F)(F)F)c(Cl)c2)C(=O)N2CCC[C@H]2C(=O)NC2(CCCC2)C(=O)N(C)[C@@H](C(C)C)C(=O)N(C)[C@H](C(=O)N2CCCCC2)CC(=O)N1C [Compound 559] ([NMePra]I[NMeA][Aze][NMeCha][Sar][hPhe(3-Cl-4-CF3)]P[Ac5c][NMeV][NMeD]-Piperidide; lactam N-11)	100 to 500
CC[C@H](C)[C@@H]1NC(=O)[C@H](CC(C)C)N(C)C(=O)C[C@@H](C(=O)N2CCCCC2)N(C)C(=O)[C@H](C2CCCC2)N(C)C(=O)C2(CCCC2)NC(=O)[C@@H]2CCCN2C(=O)[C@H](CCc2ccc(C(F)(F)F)c(F)c2)NC(=O)CN(C)C(=O)[C@H](CC2CCCCC2)N(C)C(=O)[C@@H]2CCN2C(=O)[C@H](C)N(C)C1=O [Compound 563] ([NMeL]I[NMeA][Aze][NMeCha][Sar][hPhe(3-F,4-CF3)]P[Ac5c][NMeGly(cPent)][NMeD]-Piperidide; lactam N-11)	20 to 50
CC[C@H](C)[C@@H]1NC(=O)[C@H](CC(C)C)N(C)C(=O)C[C@@H](C(=O)N(C)C)NC(=O)[C@H]([C@@H](C)CC)N(C)C(=O)C2(CCCC2)NC(=O)[C@@H]2CCCN2C(=O)[C@H](CCc2ccc(C(F)(F)F)c(Cl)c2)NC(=O)CN(C)C(=O)[C@H](CC2CCCCC2)N(C)C(=O)[C@@H]2CCN2C(=O)[C@H](C)N(C)C1=O [Compound 568] ([NMeL]I[NMeA][Aze][NMeCha][Sar][hPhe(3-Cl-4-CF3)]P[Ac5c][NMeI]D-NMe2; lactam N-11)	100 to 500
CC[C@H](C)[C@@H]1NC(=O)[C@H](CC2CCCCC2)N(C)C(=O)C[C@@H](C(=O)N2CCCCC2)N(C)C(=O)[C@H](C(C)C)N(C)C(=O)C2(CCCC2)NC(=O)[C@@H]2CCCN2C(=O)[C@H](CCc2ccc(C(F)(F)F)c(Cl)c2)NC(=O)CN(C)C(=O)[C@H](CC2CCCCC2)N(C)C(=O)[C@@H]2CCN2C(=O)[C@H](C)N(C)C1=O [Compound 572] ([NMeCha]I[NMeA][Aze][NMeCha][Sar][hPhe(3-Cl-4-CF3)]P[Ac5c][NMeV][NMeD]-Piperidide; lactam N-11)	100 to 500
CC(C)C[C@H]1C(=O)N[C@@H](C2CCC2)C(=O)N(C)[C@@H](C)C(=O)N2CC[C@H]2C(=O)N(C)[C@@H](CC2CCCCC2)C(=O)N(C)CC(=O)N[C@@H](CCc2ccc(C(F)(F)F)c(Cl)c2)C(=O)N2CCC[C@H]2C(=O)NC2(CCCC2)C(=O)N(C)[C@@H](C(C)C)C(=O)N[C@H](C)CC(=O)N1C [Compound 580] (cyclo([Ac5c][NMeV][d(β3hA)][NMeL][Gly(cBu)][NMeA][Aze][NMeCha][Sar][hPhe(3-Cl-4-CF3)]P))	100 to 500
CC[C@H](C)[C@@H]1NC(=O)[C@H](CC(C)C)N(C)C(=O)C[C@@H](C(=O)N2CCCCC2)N(C)C(=O)[C@H](C(C)C)N(C)C(=O)C2(CCCC2)NC(=O)[C@@H]2CCCN2C(=O)[C@H](CCc2ccc(C(F)(F)F)c(F)c2)NC(=O)CN(C)C(=O)[C@H](CC2CCCCC2)N(C)C(=O)[C@@H]2CCN2C(=O)CN(C)C1=O [Compound 599] ([NMeL]I[Sar][Aze][NMeCha][Sar][hPhe(3-F,4-CF3)]P[Ac5c][NMeV][NMeD]-Piperidide; lactam N-11)	100 to 500
CC[C@H](C)[C@@H]1NC(=O)[C@H](CC(C)C)N(C)C(=O)C[C@@H](C)N(C)C(=O)[C@H](C2CCCCC2)N(C)C(=O)C2(CCCC2)NC(=O)[C@@H]2CC(F)(F)CN2C(=O)[C@H](CCc2cc(F)c(C(F)(F)F)c(F)c2)NC(=O)CN(C)C(=O)[C@H](Cc2ccc(C(F)(F)F)cc2)N(C)C(=O)[C@@H]2CCN2C(=O)[C@H](C)N(C)C1=O [Compound 606] (cyclo([Ac5c][NMeChg][NMedβ3hAla][NMeL]I[NMeA][Aze][NMePhe(4-CF3)][Sar][hPhe(3,5-F2-4-CF3)][Pro(4,4-F2)]))	100 to 500
CCCCC[C@H]1C(=O)N[C@@H]([C@@H](C)CC)C(=O)N(C)[C@@H](C)C(=O)N2CC[C@H]2C(=O)N(C)[C@@H](COCCC)C(=O)N(C)CC(=O)N[C@@H](CCc2ccc(C(F)(F)F)c(Cl)c2)C(=O)N2CCC[C@H]2C(=O)NC2(CCCC2)C(=O)N(C)[C@@H](C2CCCC2)C(=O)N(C)[C@H](C(=O)N2C3CCC2COC3)CC(=O)N1C [Compound 622] ([NMeAhp(2)]I[NMeA][Aze][NMeS](Propyl)[Sar][hPhe(3-Cl-4-CF3)]P[Ac5c][NMeGly(cPent)][NMeD]-{3Oxa8azabicyclo(3.2.1)octane}; lactam N-11)	20 to 50
CCO[C@@H]1C[C@H]2C(=O)NC3(CCCC3)C(=O)N(C)[C@@H](C3CCCCC3)C(=O)N(C)[C@H](C)CC(=O)N(C)[C@@H](CC(C)C)C(=O)N[C@@H]([C@@H](C)CC)C(=O)N(C)[C@@H](C)C(=O)N3CC[C@H]3C(=O)N(C)[C@@H](Cc3ccc(C(F)(F)F)cc3)C(=O)N(C)CC(=O)N[C@@H](CCc3ccc(C(F)(F)F)c(Cl)c3)C(=O)N2C1 [Compound 652] (cyclo([Ac5c][NMeChg][NMedβ3hAla][NMeL]I[NMeA][Aze][NMePhe(4-CF3)][Sar][hPhe(3-Cl-4-CF3)][Hyp](Et)))	50 to 100
CC[C@H](C)[C@@H]1NC(=O)[C@H](CC(C)C)N(C)C(=O)C[C@@H](C)NC(=O)[C@H](C(C)C)N(C)C(=O)C2(CCCC2)NC(=O)[C@@H]2CCCN2C(=O)[C@H](CCc2ccc(C(F)(F)F)c(Cl)c2)NC(=O)CN(C)C(=O)[C@H](CC2CCCCC2)N(C)C(=O)[C@@H]2CCN2C(=O)CN(C)C1=O [Compound 663] (cyclo([Ac5c][NMeV][d(β3hA)][NMeL]I[Sar][Aze][NMeCha][Sar][hPhe(3-Cl-4-CF3)]P))	100 to 500
